Experimental findings from paper PMC9936582, “Sulfamate Acetamides as Self-Immolative Electrophiles for Covalent Ligand-Directed Release Chemistry” (Journal of the American Chemical Society, 2023) are described below.

The target in this assay is BTK (Homo sapiens, UniProt Q06187). The assay can be described thus: BTK activity (autophosphorylation) in Mino cells, Western blot. The assay is classed as cell-based. As to conditions: anti-IgM activation, Western blot normalized to β-actin. The arrangement: endogenous in cells; host or cells: Mino cells. As for the experimental part:
To assess the cellular efficacy of these compounds, we followed the inhibition of BTK autophosphorylation in Mino cells. After 1 h of pre-incubation with the inhibitors and B-cell activation with an anti-IgM antibody, BTK autophosphorylation was followed by Western blot.
The cell pellets were subjected to immunoblotting, and Western blots were performed for p-BTK, BTK, and β-actin.
Cell pellets were washed with ice-cold PBS and lysed using RIPA buffer (Sigma, R0278). […] Samples containing 50 μg total protein were prepared with 4× LDS sample buffer (NuPAGE, Thermo Scientific, NP0007) and 20 mM DTT, which were then resolved on a 4–20% Bis–Tris gel (GeneScript SurePAGE, M00657). […] An EZ-ECL Kit (Biological Industries, 20-500-1000) was used to detect HRP activity.
In general terms: In western blotting, separated proteins are transferred to a membrane and probed.

SMILES strings stand for the structures.

Chain of BTK (Q06187 whole entry): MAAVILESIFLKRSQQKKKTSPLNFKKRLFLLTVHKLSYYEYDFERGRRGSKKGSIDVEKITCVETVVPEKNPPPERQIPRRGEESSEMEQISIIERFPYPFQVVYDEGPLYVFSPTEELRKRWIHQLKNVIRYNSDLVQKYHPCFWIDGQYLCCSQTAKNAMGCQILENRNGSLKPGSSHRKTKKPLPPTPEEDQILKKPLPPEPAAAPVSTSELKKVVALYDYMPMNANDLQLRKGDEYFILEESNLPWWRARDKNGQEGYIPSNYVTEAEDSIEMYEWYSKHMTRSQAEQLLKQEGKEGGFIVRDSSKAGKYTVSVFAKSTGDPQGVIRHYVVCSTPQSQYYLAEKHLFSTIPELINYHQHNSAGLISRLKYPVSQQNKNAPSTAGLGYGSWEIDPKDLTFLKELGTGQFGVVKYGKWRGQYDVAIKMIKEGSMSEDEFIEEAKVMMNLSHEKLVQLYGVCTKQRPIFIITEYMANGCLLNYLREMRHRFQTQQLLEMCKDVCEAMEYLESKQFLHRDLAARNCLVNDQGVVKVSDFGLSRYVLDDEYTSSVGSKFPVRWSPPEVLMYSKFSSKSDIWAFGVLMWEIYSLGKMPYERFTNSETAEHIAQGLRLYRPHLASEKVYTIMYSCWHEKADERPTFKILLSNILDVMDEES

For `Nc1ncnc2c1c(-c1ccc(Oc3ccccc3)cc1)nn2[C@@H]1CCCN(C(=O)COS(=O)(=O)NCc2ccccc2)C1` [3d], the IC50 (usually the concentration that inhibits the measured activity by half) turned out to be 164 nM.

Compound `CNS(=O)(=O)OCC(=O)N1CCC[C@@H](n2nc(-c3ccc(Oc4ccccc4)cc3)c3c(N)ncnc32)C1` [3c] displayed an IC50 of 3.6 nM.
